Entries after “also recorded” stand apart in the source; their conditions may differ.

For the first assay, the system named is WT TMEM55B region 80-166. Kind of assay: In vitro pulldown of untagged TMEM55B with His-tagged bait peptides. The format is binding. Conditions: 10 μM bait, 10 μM prey, Ni2+-agarose, 20 mM Tris pH 8.0, 300 mM NaCl, 20 mM imidazole, 15 minutes; SDS-PAGE, Coomassie; qualitative. The source says:
(§1) Figure 5: In vitro pulldowns of TMEM55B with TBM peptides. (A) Domain organization of TMEM55B interactors depicting the sequence context of the TBM. Regions that are α-helical have been drawn as cylinders; α/βfolds are shown as rectangles; and unstructured segments are zigzag lines. (B) Cartoon depiction of the in vitro pulldown strategy using His-tagged peptides. […] As a control, the R151E variant of TMEM55B was used, which abolishes the interactions with RILPL1 (bottom panel). […] Protein/peptide concentrations were 10μM (see Methods) and visualization was enabled by Coomassie Brilliant Blue G250.
(§2) Given that the TBMs reside in flexible regions of the adaptor proteins (Figure 5A), peptides should be able to mimic their interactions with TMEM55B. Peptides corresponding to the potential TBMs were synthesized with an N-terminal hexahistidine tag to enable in vitro pulldowns of TMEM55B (80-166; Figure 5B). Slightly extended peptides beyond the minimal TBMs were generated to preclude any structural or conformational restrictions on the interaction with TMEM55B. The peptide TBM from RILPL1 was used as a positive control, and the mutant R151E™ of TMEM55B provided a negative control. Peptides run on conventional SDS-PAGE gels are generally not visible in this assay.
In vitro pulldowns were conducted using hexahistidine tagged peptides of interacting proteins as bait, as described in dx.doi.org/10.17504/protocols.io.dm6gpqk91lzp/v2. If not stated otherwise 10μM of bait peptide or the hexahistidine tagged PH domain of OCRL was mixed with 10μM of prey TMEM55B80-166 or TMEM55B80-160 in 1.5 mL centrifuge tubes with 25 μl Ni^2+-agarose resin in a final volume of 1ml of binding buffer (20 mM Tris pH 8.0, 300 mM NaCl, 20mM Imidazole, 10 mM β-mercapotoethanol). The reaction mixture was subjected to gentle shaking for 15 minutes. The resin was collected by gentle centrifugation (1,000 rpm) and washed 3 times with 1 ml of the binding buffer. Following release of proteins from the resin with 50μl elution buffer (20 mM Tris-Cl pH 8.0, 300 mM NaCl, 200mM imidazole), samples were subjected to SDS-PAGE and stained with Coomassie Brilliant Blue[26].
Regarding “HHHHHHSQSTEEATEATEVPD [JIP3, His-tagged JIP3 889-903 TBM peptide used as pulldown bait]”, the “pulldown of untagged WT TMEM55B (80-166) by His-tagged bait” value (from here on “pulldown of untagged WT TMEM55B”) was “interact with TMEM55B”.

As to “HHHHHHGSDDLEQATEALDS [WDR81, His-tagged WDR81 657-668 TBM peptide used as pulldown bait]”, the “pulldown of untagged WT TMEM55B” value is listed as “interact with TMEM55B”.

As to “HHHHHHGSVQEAEETLLID [OCRL, His-tagged peptide corresponding to the TBM of OCRL, residues 65-75]”, the “pulldown of untagged WT TMEM55B” value is “failed to pulldown TMEM55B; also recorded: did not significantly interact”.

As to “HHHHHHGSTAEEATEATEG [JIP4, His-tagged JIP4 887-897 TBM peptide used as pulldown bait]”, the “pulldown of untagged WT TMEM55B” value is reported as “interact with TMEM55B”.

Consider “HHHHHHGSGYTEQGQEALQHL [His-tagged RILPL1 peptide, RILPL1 391-403 TBM peptide with N-terminal hexahistidine tag; direct pulldown, ITC]”, for which the “pulldown of untagged WT TMEM55B” value is “clear band”.

For a further assay, the system named is R151E variant of TMEM55B. Kind of assay: In vitro pulldown of TMEM55B R151E variant with His-tagged bait peptides (negative control). In kind it is binding. Conditions: 10 μM bait, 10 μM prey, Ni2+-agarose, 20 mM Tris pH 8.0, 300 mM NaCl, 20 mM imidazole, SDS-PAGE, Coomassie, qualitative.
Description: as §1
as §2, with “assay. […]” for “assay.”
With “HHHHHHGSGYTEQGQEALQHL [His-tagged RILPL1 peptide, RILPL1 391-403 TBM peptide with N-terminal hexahistidine tag; direct pulldown, ITC]”, the “pulldown of R151E variant of TMEM55B by His-tagged bait” value is given as “abolished”.

(Values after publication doi:10.1101/2025.08.19.670962, “Structural basis for binding of RILPL1 to TMEM55B reveals a lysosomal platform for adaptor assembly through a conserved TBM motif” (bioRxiv, 2025).)
